Measurements from patent US4239887A, “Pyridothienotriazines” (USV Pharmaceutical Corporation, priority 1979, dated 1980).

Experiments:
[1] = oral anti-allergy activity in standard tests; type: in vivo; conditions: standard tests for anti-allergy activity
[2] = test system: formation of a wheal (Rat Passive Cutaneous Anaphylaxis); test: Rat Passive Cutaneous Anaphylaxis (PCA) Screen, inhibition of wheal formation; type: in vivo; conditions: for ED50: oral (p.o.), rat PCA, read-out: ED50 (dose required to give 50% reduction in wheal size)
Description: The compounds of this invention have potent activity in inhibiting the formation of a wheal when screened according to the Rat Passive Cutaneous Anaphylaxis Screen as is described by I. Mota, Life Sciences, 7, 465 (1963) and Z. Ovary, et al., Proceedings of Society of Experimental Biology and Medicine, 81, 584 (1952).
The activities are given as ED50 values, which are the doses required to give 50% reductions in wheal size.

Structure (SMILES)	anti-allergy activity (in words) [1]	inhibition of wheal size ([2]; tested at 25 mg/kg, p.o.) [%]	ED50 [2] [mg/kg]
Oc1nnnc2c1sc1ncccc12 [4-Hydroxy-pyrido[3',2':4,5]thieno[3,2-d]-1,2,3-triazine, reference compound]	essentially inactive	31	–
Cc1cc(C)c2c(n1)sc1c(O)nnnc12 [7,9-diCH3, OH, 4-Hydroxy-7,9-dimethylpyrido[3',2':4,5]thieno[3,2-d]-1,2,3-triazine]	–	–	5.6
Cc1ccc2c(n1)sc1cnnnc12 [7-CH3, H, 7-Methylpyrido[3',2':4,5]thieno[3,2-d]-1,2,3-triazine]	–	–	1
Cc1ccc2c(n1)sc1c(O)nnnc12 [7-CH3, OH, 4-Hydroxy-7-methylpyrido[3',2':4,5]thieno[3,2-d]-1,2,3-triazine]	–	–	6
Oc1nnnc2c1sc1nc(-c3ccccc3)ccc12 [7-phenyl, OH, 4-Hydroxy-7-phenylpyrido[3',2':4,5]thieno[3,2-d]-1,2,3-triazine]	–	–	0.74
